{
  "source": "ChEMBL document CHEMBL4229418",
  "about": "“Design, synthesis and pharmacology of aortic-selective acyl-CoA: Cholesterol O-acyltransferase (ACAT/SOAT) inhibitors” (Bioorg Med Chem, 2018)",
  "key": {"Hamster [1]": {"tested_on": "Hamster", "assay": "Antiatherosclerotic activity in Bio F1B hamster model of diet-induced atherosclerosis assessed as liver free cholesterol level at 30 mg/kg/day added to chow pellets (reference value: 7.94 mg/dl)", "format": "functional, Cricetinae"}, "[2]": {"assay": "Solubility of the compound in pH 1.2 solution", "format": "physicochemical", "settings": "buffer"}, "[3]": {"assay": "AUC (0 to 8 hrs) in fasted Beagle dog at 30 mg/kg, po by LC-MS/MS analysis", "format": "ADME, organism-based, Canis lupus familiaris", "design": "dose 30 mg/kg, time < 8 hr, route oral", "settings": "in vivo"}, "Hamster [4]": {"tested_on": "Hamster", "assay": "Effect on lipid composition in Bio F1B hamster model of diet-induced atherosclerosis assessed as intestine total cholesterol level at 30 mg/kg/day added to chow pellets (reference value: 4.51 mg/dl)", "format": "functional, Cricetinae"}, "Hamster [5]": {"tested_on": "Hamster", "assay": "Antiatherosclerotic activity in Bio F1B hamster model of diet-induced atherosclerosis assessed as intestinal cholesterol ester level at 10 mg/kg/day added to chow pellets (reference value: 1.09 mg/dl)", "format": "functional, Cricetinae"}, "Hamster [6]": {"tested_on": "Hamster", "assay": "Antiatherosclerotic activity in Bio F1B hamster model of diet-induced atherosclerosis assessed as liver free cholesterol level at 1 mg/kg/day added to chow pellets (reference value: 7.94 mg/dl)", "format": "functional, Cricetinae"}, "Hamster [7]": {"tested_on": "Hamster", "assay": "Effect on lipid composition in Bio F1B hamster model of diet-induced atherosclerosis assessed as adrenal total cholesterol level at 3 mg/kg/day added to chow pellets (reference value: 10.54 mg/dl)", "format": "functional, Cricetinae"}, "Hamster [8]": {"tested_on": "Hamster", "assay": "Antiatherosclerotic activity in Bio F1B hamster model of diet-induced atherosclerosis assessed as intestinal free cholesterol level at 10 mg/kg/day added to chow pellets (reference value: 3.41 mg/dl)", "format": "functional, Cricetinae"}, "Hamster [9]": {"tested_on": "Hamster", "assay": "Effect on lipid composition in Bio F1B hamster model of diet-induced atherosclerosis assessed as adrenal total cholesterol level at 10 mg/kg/day added to chow pellets (reference value: 10.54 mg/dl)", "format": "functional, Cricetinae"}, "Hamster [10]": {"tested_on": "Hamster", "assay": "Effect on lipid composition in Bio F1B hamster model of diet-induced atherosclerosis assessed as adrenal total cholesterol level at 30 mg/kg/day added to chow pellets (reference value: 10.54 mg/dl)", "format": "functional, Cricetinae"}, "Hamster [11]": {"tested_on": "Hamster", "assay": "Antiatherosclerotic activity in Bio F1B hamster model of diet-induced atherosclerosis assessed as plasma free cholesterol level at 3 mg/kg/day added to chow pellets (reference value: 780.8 mg/dl)", "format": "functional, Cricetinae"}, "Hamster [12]": {"tested_on": "Hamster", "assay": "Effect on lipid composition in Bio F1B hamster model of diet-induced atherosclerosis assessed as intestine total cholesterol level at 3 mg/kg/day added to chow pellets (reference value: 4.51 mg/dl)", "format": "functional, Cricetinae"}, "Hamster [13]": {"tested_on": "Hamster", "assay": "Toxicity in Bio F1B hamster model of diet-induced atherosclerosis assessed as plasma total cholesterol level at 30 mg/kg/day added to chow pellets (reference value: 2160.1 mg/dl)", "format": "organism-based", "settings": "cricetinae, in vivo"}, "[14]": {"assay": "Tmax in non-fasted Beagle dog at 30 mg/kg, po by LC-MS/MS analysis", "format": "ADME, organism-based, Canis lupus familiaris", "settings": "in vivo"}, "Hamster [15]": {"tested_on": "Hamster", "assay": "Antiatherosclerotic activity in Bio F1B hamster model of diet-induced atherosclerosis assessed as intestinal cholesterol ester level at 30 mg/kg/day added to chow pellets (reference value: 1.09 mg/dl)", "format": "functional, Cricetinae"}, "Hamster [16]": {"tested_on": "Hamster", "assay": "Effect on lipid composition in Bio F1B hamster model of diet-induced atherosclerosis assessed as liver total cholesterol level at 3 mg/kg/day added to chow pellets (reference value: 31.99 mg/dl)", "format": "functional, Cricetinae"}, "Hamster [17]": {"tested_on": "Hamster", "assay": "Toxicity in Bio F1B hamster model of diet-induced atherosclerosis assessed as plasma total cholesterol level at 10 mg/kg/day added to chow pellets (reference value: 2160.1 mg/dl)", "format": "organism-based", "settings": "cricetinae, in vivo"}, "Hamster [18]": {"tested_on": "Hamster", "assay": "Antiatherosclerotic activity in Bio F1B hamster model of diet-induced atherosclerosis assessed as intestinal free cholesterol level at 30 mg/kg/day added to chow pellets (reference value: 3.41 mg/dl)", "format": "functional, Cricetinae"}, "Hamster [19]": {"tested_on": "Hamster", "assay": "Toxicity in Bio F1B hamster model of diet-induced atherosclerosis assessed as adrenal free cholesterol level at 10 mg/kg/day added to chow pellets (reference value: 4.65 mg/dl)", "format": "organism-based", "settings": "cricetinae, in vivo"}, "Hamster [20]": {"tested_on": "Hamster", "assay": "Toxicity in Bio F1B hamster model of diet-induced atherosclerosis assessed as adrenal free cholesterol level at 3 mg/kg/day added to chow pellets (reference value: 4.65 mg/dl)", "format": "organism-based", "settings": "cricetinae, in vivo"}, "Hamster [21]": {"tested_on": "Hamster", "assay": "Effect on lipid composition in Bio F1B hamster model of diet-induced atherosclerosis assessed as liver total cholesterol level at 30 mg/kg/day added to chow pellets (reference value: 31.99 mg/dl)", "format": "functional, Cricetinae"}, "Hamster [22]": {"tested_on": "Hamster", "assay": "Antiatherosclerotic activity in Bio F1B hamster model of diet-induced atherosclerosis assessed as intestinal free cholesterol level at 1 mg/kg/day added to chow pellets (reference value: 3.41 mg/dl)", "format": "functional, Cricetinae"}, "Hamster [23]": {"tested_on": "Hamster", "assay": "Antiatherosclerotic activity in Bio F1B hamster model of diet-induced atherosclerosis assessed as plasma cholesterol ester level at 10 mg/kg/day added to chow pellets (reference value: 1379.3 mg/dl)", "format": "functional, Cricetinae"}, "[24]": {"assay": "Tmax in fasted Beagle dog at 30 mg/kg, po by LC-MS/MS analysis", "format": "ADME, organism-based, Canis lupus familiaris", "settings": "in vivo"}, "Hamster [25]": {"tested_on": "Hamster", "assay": "Toxicity in Bio F1B hamster model of diet-induced atherosclerosis assessed as plasma total cholesterol level at 1 mg/kg/day added to chow pellets (reference value: 2160.1 mg/dl)", "format": "organism-based", "settings": "cricetinae, in vivo"}, "Hamster [26]": {"tested_on": "Hamster", "assay": "Antiatherosclerotic activity in Bio F1B hamster model of diet-induced atherosclerosis assessed as plasma cholesterol ester level at 1 mg/kg/day added to chow pellets (reference value: 1379.3 mg/dl)", "format": "functional, Cricetinae"}, "Hamster [27]": {"tested_on": "Hamster", "assay": "Effect on lipid composition in Bio F1B hamster model of diet-induced atherosclerosis assessed as intestine total cholesterol level at 1 mg/kg/day added to chow pellets (reference value: 4.51 mg/dl)", "format": "functional, Cricetinae"}, "Hamster [28]": {"tested_on": "Hamster", "assay": "Antiatherosclerotic activity in Bio F1B hamster model of diet-induced atherosclerosis assessed as adrenal cholesterol ester level at 1 mg/kg/day added to chow pellets (reference value: 5.88 mg/dl)", "format": "functional, Cricetinae"}, "Hamster [29]": {"tested_on": "Hamster", "assay": "Antiatherosclerotic activity in Bio F1B hamster model of diet-induced atherosclerosis assessed as liver cholesterol ester level at 30 mg/kg/day added to chow pellets (reference value: 24.04 mg/dl)", "format": "functional, Cricetinae"}, "[30]": {"assay": "Tmax in non-fasted Sprague-Dawley rat at 30 mg/kg, po by LC-MS/MS analysis", "format": "ADME, organism-based", "settings": "in vivo"}, "Hamster [31]": {"tested_on": "Hamster", "assay": "Antiatherosclerotic activity in Bio F1B hamster model of diet-induced atherosclerosis assessed as reduction in lipid accumulation areas in aortic arch at 10 mg/kg/day added to chow pellets by oil red O staining based assay relative to control", "format": "functional", "settings": "Cricetinae"}, "Hamster [32]": {"tested_on": "Hamster", "assay": "Toxicity in Bio F1B hamster model of diet-induced atherosclerosis assessed as plasma total cholesterol level at 3 mg/kg/day added to chow pellets (reference value: 2160.1 mg/dl)", "format": "organism-based", "settings": "cricetinae, in vivo"}, "Hamster [33]": {"tested_on": "Hamster", "assay": "Antiatherosclerotic activity in Bio F1B hamster model of diet-induced atherosclerosis assessed as liver cholesterol ester level at 1 mg/kg/day added to chow pellets (reference value: 24.04 mg/dl)", "format": "functional, Cricetinae"}, "[34]": {"assay": "Cmax in non-fasted Sprague-Dawley rat at 30 mg/kg, po by LC-MS/MS analysis", "format": "ADME, organism-based", "design": "dose 30 mg/kg, route oral", "settings": "in vivo"}, "Hamster [35]": {"tested_on": "Hamster", "assay": "Antiatherosclerotic activity in Bio F1B hamster model of diet-induced atherosclerosis assessed as adrenal cholesterol ester level at 10 mg/kg/day added to chow pellets (reference value: 5.88 mg/dl)", "format": "functional, Cricetinae"}},
  "data": [
    {"smiles": "CC(C)c1cccc(C(C)C)c1NC(=O)CCCCCCCCSc1nc2ccccc2o1", "values": [
      {"measurement": "Activity", "setting": "Hamster [1]", "value": 2.43, "unit": "mg/dL"},
      {"measurement": "solubility", "setting": "[2]", "value": 0.03, "unit": "µg/mL"},
      {"measurement": "AUC(0-t) at 8 h", "setting": "[3]", "value": 14, "unit": "ng·h/mL"},
      {"measurement": "Activity", "setting": "Hamster [4]", "value": 4.81, "unit": "mg/dL"},
      {"measurement": "Activity", "setting": "Hamster [5]", "value": 0.31, "unit": "mg/dL"},
      {"measurement": "Activity", "setting": "Hamster [6]", "value": 7.94, "unit": "mg/dL"},
      {"measurement": "Activity", "setting": "Hamster [7]", "value": 10.07, "unit": "mg/dL"},
      {"measurement": "Activity", "setting": "Hamster [8]", "value": 3.82, "unit": "mg/dL"},
      {"measurement": "Activity", "setting": "Hamster [9]", "value": 7, "unit": "mg/dL"},
      {"measurement": "Activity", "setting": "Hamster [10]", "value": 3.47, "unit": "mg/dL"},
      {"measurement": "Activity", "setting": "Hamster [11]", "value": 801.5, "unit": "mg/dL"},
      {"measurement": "Activity", "setting": "Hamster [12]", "value": 4.12, "unit": "mg/dL"},
      {"measurement": "Activity", "setting": "Hamster [13]", "value": 476.3, "unit": "mg/dL"},
      {"measurement": "Tmax", "setting": "[14]", "value": 3, "unit": "h"},
      {"measurement": "Activity", "setting": "Hamster [15]", "value": 0.24, "unit": "mg/dL"},
      {"measurement": "Activity", "setting": "Hamster [16]", "value": 23.62, "unit": "mg/dL"},
      {"measurement": "Activity", "setting": "Hamster [17]", "value": 1291.7, "unit": "mg/dL"},
      {"measurement": "Activity", "setting": "Hamster [18]", "value": 4.62, "unit": "mg/dL"},
      {"measurement": "Activity", "setting": "Hamster [19]", "value": 3.5, "unit": "mg/dL"},
      {"measurement": "Activity", "setting": "Hamster [20]", "value": 4.05, "unit": "mg/dL"},
      {"measurement": "Activity", "setting": "Hamster [21]", "value": 3.03, "unit": "mg/dL"},
      {"measurement": "Activity", "setting": "Hamster [22]", "value": 3.43, "unit": "mg/dL"},
      {"measurement": "Activity", "setting": "Hamster [23]", "value": 799.7, "unit": "mg/dL"},
      {"measurement": "Tmax", "setting": "[24]", "value": 1, "unit": "h"},
      {"measurement": "Activity", "setting": "Hamster [25]", "value": 2340.8, "unit": "mg/dL"},
      {"measurement": "Activity", "setting": "Hamster [26]", "value": 1512.6, "unit": "mg/dL"},
      {"measurement": "Activity", "setting": "Hamster [27]", "value": 4.4, "unit": "mg/dL"},
      {"measurement": "Activity", "setting": "Hamster [28]", "value": 6.72, "unit": "mg/dL"},
      {"measurement": "Activity", "setting": "Hamster [29]", "value": 0.69, "unit": "mg/dL"},
      {"measurement": "Tmax", "setting": "[30]", "value": 3.2, "unit": "h"},
      {"measurement": "inhibition in vivo at 10 mg/kg/day", "setting": "Hamster [31]", "value": 42, "unit": "%"},
      {"measurement": "Activity", "setting": "Hamster [32]", "value": 2241, "unit": "mg/dL"},
      {"measurement": "Activity", "setting": "Hamster [33]", "value": 22.81, "unit": "mg/dL"},
      {"measurement": "Cmax", "setting": "[34]", "value": 107, "unit": "ng/mL"},
      {"measurement": "Activity", "setting": "Hamster [35]", "value": 3.5, "unit": "mg/dL"}
    ]}
  ]
}
